Measured values as given in patent US20090011424A1, “Cancer-suppressing agents” (Tokyo Medical and Dental University, priority 2005, published 2009).

Test system: SMS-KAN cell
Assay: messenger RNA expression analysis, AceGene Human oligo chip 30 K, NR1I2-expressing clone B1 vs control clone
Assay type: cell-based
Conditions: 1st: Cy3-B1/Cy5-control
Excerpt: The NR1I2 gene has been known as a transcriptional factor. Thus, it is possible to know what type of gene expression is controlled by obtaining messenger RNAs from cells causing NR1I2 protein expression and cells not causing such expression, and comparing the expression levels thereof with each other. As described above, the NR1I2 gene protein may have an effect of inhibiting cancer. […] Therefore, pCMV-Tag3 vector not containing a foreign gene as a control was introduced into SMS-KAN cell, and pCMV-Tag3-VP-NR1I2 containing the NR1I2 gene as a test sample was introduced into SMS-KAN cell. As a result, a control cell clone and a cell clone B1 permanently causing NR1I2 protein expression were obtained. Thereafter, analysis of messenger RNA expression was carried out using these two types of cells and an AceGene Human oligo chip 30 K (DNA Chip Research Inc.), with which the expression levels of 30,000 human genes can be observed (Inoue. J., et al. Am J. Pathol. 165. 71. 2004). A complementary strand DNA (complimentary DNA) was prepared, into which aminoallyl-dUTP (Ambion Inc.) was incorporated using an Oligo (dT) 12-18 primer. Then, the aminoallyl group was labeled with reactive Cy3 (cyanin 3) and Cy5 (cyanin 5) (Amersham Biosciences) via a coupling reaction. Hybridization was performed twice (1st: Cy3-B1/Cy5-control; 2nd: Cy5-B1/Cy3-control). Signals were measured using a GenePix 4000B (Axon Instruments) so as to be analyzed by GenePix Pro 4.1 software (Axon Instruments). Tables 3 and 4 are lists of genes, where in the cases of SMS-KAN cells into which the NR1I2 gene had been introduced in the two experiments, the expression levels were 1.5-fold or greater than the expression level in the case of a control cell clone.

NR1I2 gene: human-derived gene, nuclear receptor subfamily 1, group I, member 2 (pregnane X receptor, PXR), nucleotide sequence SEQ ID NO: 1
ADAMTS2 expression level Ratio 1st: 1.58
ADNP expression level Ratio 1st: 1.61
AP3S2 expression level Ratio 1st: 2.51
APEG1 expression level Ratio 1st: 1.88
APOA1 expression level Ratio 1st: 1.98
APP expression level Ratio 1st: 2.03
ARHC expression level Ratio 1st: 1.50
ARL2 expression level Ratio 1st: 1.51
ASCL2 expression level Ratio 1st: 2.43
ASH1 expression level Ratio 1st: 1.81
B4GALT5 expression level Ratio 1st: 1.54
BARD1 expression level Ratio 1st: 1.90
BCAT2 expression level Ratio 1st: 1.61
BLP2 expression level Ratio 1st: 1.51
BMP15 expression level Ratio 1st: 1.50
C6orf25 expression level Ratio 1st: 1.74
CCNA1 expression level Ratio 1st: 1.89
CDC7L1 expression level Ratio 1st: 1.84
CISH expression level Ratio 1st: 2.14
CORO2A expression level Ratio 1st: 1.71
Cab45 expression level Ratio 1st: 1.84
DKFZp434G05 expression level Ratio 1st: 1.56
DKKL1 expression level Ratio 1st: 1.53
DNA12 expression level Ratio 1st: 1.52
EPHX1 expression level Ratio 1st: 2.22
ERCC1 expression level Ratio 1st: 1.82
ETR101 expression level Ratio 1st: 1.65
EXT1 expression level Ratio 1st: 1.87
FLJ10737 expression level Ratio 1st: 1.51
FLJ12389 expression level Ratio 1st: 2.16
FLJ13197 expression level Ratio 1st: 2.95
FLJ13479 expression level Ratio 1st: 1.92
FLJ20288 expression level Ratio 1st: 1.81
FLJ20555 expression level Ratio 1st: 1.51
FLJ23462 expression level Ratio 1st: 1.64
FOFR3 expression level Ratio 1st: 1.56
GLI2 expression level Ratio 1st: 2.68
GNE expression level Ratio 1st: 1.87
GSTT2 expression level Ratio 1st: 3.23
GUCY1A3 expression level Ratio 1st: 1.60
HHEX expression level Ratio 1st: 1.55
HNT expression level Ratio 1st: 1.55
HPCL2 expression level Ratio 1st: 1.72
ICAM5 expression level Ratio 1st: 1.52
IFIT4 expression level Ratio 1st: 1.52
INSL6 expression level Ratio 1st: 1.66
IRC039700 expression level Ratio 1st: 2.12
KCNJ15 expression level Ratio 1st: 1.88
KIAA0161 expression level Ratio 1st: 1.54
KIAA0212 expression level Ratio 1st: 2.01
LBP-9 expression level Ratio 1st: 1.93
LDB1 expression level Ratio 1st: 1.58
LICAM expression level Ratio 1st: 1.87
LILRB5 expression level Ratio 1st: 1.73
LOC51024 expression level Ratio 1st: 1.67
LRP8 expression level Ratio 1st: 1.52
LZLP expression level Ratio 1st: 1.58
MAFG expression level Ratio 1st: 2.51
MGC2306 expression level Ratio 1st: 1.55
MGC2941 expression level Ratio 1st: 1.90
MPP6 expression level Ratio 1st: 1.67
MT-ACT48 expression level Ratio 1st: 1.59
OCM expression level Ratio 1st: 1.7
OMP expression level Ratio 1st: 1.55
OPA3 expression level Ratio 1st: 2.46
ORC5L expression level Ratio 1st: 1.67
ORM1 expression level Ratio 1st: 1.58
PCDHA4 expression level Ratio 1st: 1.94
PCDHB10 expression level Ratio 1st: 1.63
PDCD8 expression level Ratio 1st: 2.00
PFKFB4 expression level Ratio 1st: 4.90
PGAM1 expression level Ratio 1st: 2.13
PITPN expression level Ratio 1st: 1.73
PLA2G2A expression level Ratio 1st: 3.01
PLCE1 expression level Ratio 1st: 2.89
PLEKHA1 expression level Ratio 1st: 1.54
PRO2121 expression level Ratio 1st: 1.89
PRO2831 expression level Ratio 1st: 1.51
RDH5 expression level Ratio 1st: 1.62
RP1 expression level Ratio 1st: 1.54
RPL39L expression level Ratio 1st: 2.30
RPS16 expression level Ratio 1st: 1.56
SC65 expression level Ratio 1st: 1.56
SCD expression level Ratio 1st: 1.74
SCN2B expression level Ratio 1st: 1.52
SLC22A11 expression level Ratio 1st: 1.66
SNAP91 expression level Ratio 1st: 3.38
STK11 expression level Ratio 1st: 1.62
SURF1 expression level Ratio 1st: 1.92
TCEA1 expression level Ratio 1st: 1.54
TGM2 expression level Ratio 1st: 1.59
TIMM10 expression level Ratio 1st: 1.87
TLAL1 expression level Ratio 1st: 2.34
TMPRSS4 expression level Ratio 1st: 1.55
TOP3B expression level Ratio 1st: 1.59
TPARL expression level Ratio 1st: 1.56
TRPV4 expression level Ratio 1st: 1.77
TSPAN-1 expression level Ratio 1st: 1.67
UXT expression level Ratio 1st: 2.90
WHSC2 expression level Ratio 1st: 1.65
